PMC5566973 (Frontiers in Pharmacology, 2017)
Like-named read-outs stand apart in the source and are kept apart here.

Columns and labels:
Assay in all cases: Bidirectional transport in MDCK cell monolayers with selective transporter inhibitors or substrates
Type in all cases: in vitro ADME, canine
OCTs/OCTNs = conditions: dog, with TEA 5 mM, + TEA 5 mM (OCTs/OCTNs)
Protocol: (§1) Caco-2, MDCK and MDCK-MRP2 cells were donated by Prof. Yan Xie and Yueming Ma from Shanghai University of Traditional Chinese Medicine. The cells were grown in culture dishes (Corning® Costar, Cambridge, MA, USA) using DMEM supplemented with 10% FBS, 1% NEAA and 1% penicillin-streptomycin solution. The cells were cultured in 5% CO2 and […] with 90% relative humidity at 37°C. The medium was replaced every other day during incubation. The cells were passaged every 3–4 days between 70 and 80% confluence at a 1:5 split ratio using 0.25% trypsin-EDTA. For the transport experiments, the cells from passages between 30 and 45 were seeded at 1 × 10^5 cells/cm^2 onto permeable polycarbonate inserts (0.45 μm pore size, seeding surface of 0.6 cm^2, Millipore, MA, USA) in 24-well plastic plates. The media in the culture plates were changed every other day for the first week after seeding and were replaced daily afterward. […] The cells were used for the transport experiments 21–28 (Caco-2) or 5–7 (MDCK and MDCK-MRP2) days after seeding, and only monolayers with a TEER-value above 420 Ω cm^2 were used during the studies.
(§2) The apical (AP) and basolateral (BL) sides are typical of polarized Caco-2, MDCK and MDCK-MRP2 epithelial cells. Before the experiments, the polarized cell monolayers were washed twice with warm HBSS solution and subsequently preincubated (37°C, 30 min). Afterward, HBSS solution on both sides of the cell monolayers was removed using a mini desktop vacuum pump. […] The final DMSO concentration in the HBSS or drug mixture was below 0.5%. The monolayers were incubated at 37°C, and 100 μL samples were taken at 30, 60, 90, and 120 min from the acceptor compartment and immediately replaced with the same volume of prewarmed fresh blank HBSS. TEER measurements for assessing the membrane integrity took place before and after the experiments.
(§3) The apparent permeability coefficients (Papp) and ER were calculated as Equations (2) and (3): […]
(§4) where dQ/dt is the steady-state flux, A is the membrane surface area, and C0 is the initial drug concentration in the donor compartment. PappBA is the Papp-value measured in BL to AP direction and PappAB is the Papp-value measured in AP to BL direction. It indicated the involvement of an active transport process when the ER-value is above 1.5 (Hubatsch et al., [2007]).

MDCK cell monolayers = conditions: 2 μM
Protocol: as §1, §2, §3, §4

SGLT1 = conditions: dog, with phloridzin 0.5 mM, + Phloridzin 0.5 mM (SGLT1), read-out: ER
Protocol: as §1, §2, §3, §4

[1] = system: ATP (adenosine triphosphate); conditions: dog, with NaN3 10 mM, + NaN3 10 mM (ATP), read-out: ER
Protocol: as §1, §2, §3, §4

Na+/K+-ATPase = conditions: dog, with sodium vanadate 0.05 mM (50 μM), + Sodium vanadate 0.05 mM (Na^+)
Protocol: as §1, §2, §3, §4

MDR1 = conditions: dog; for efflux ratio at 120 min, 2 μM: read-out: ER
Protocol: as §1, §2, §3, §4

MRP2 = conditions: dog, read-out: ER
Protocol: as §1, §2, §3, §4

BCRP = conditions: dog; for efflux ratio at 120 min, 2 μM: read-out: ER
Protocol: as §1, §2, §3, §4

[2] = Control (no inhibitor or substrate)
[3] = with quinidine 0.1 mM (100 μM), + Quinidine 0.1 mM (MDR1)
[4] = with verapamil 0.1 mM (100 μM), + Verapamil 0.1 mM (MDR1)
[5] = with apigenin 0.025 mM (25 μM), + Apigenin 0.025 mM (BCRP)

Q: Which results are given for `COc1ccc2c3c([nH]c2c1)C(C)=NCC3` [Harmaline]?
A: Papp A→B at 120 min, 2 μM (OCTs/OCTNs): 16.5 ± 1.1 ×10⁻⁶ cm/s; Papp B→A at 120 min, 2 μM (OCTs/OCTNs): 22.8 ± 0.29 ×10⁻⁶ cm/s; efflux ratio at 120 min, 2 μM (OCTs/OCTNs; read-out: ER): 1.38; Modulatory effect (MDCK cell monolayers; + Apigenin 0.025 mM (BCRP)): −; PappAB (MDCK cell monolayers; + Apigenin 0.025 mM (BCRP)): 20.44 ± 2.19 1 × 10^−6 cm/s; Modulatory effect (MDCK cell monolayers; + Cimetidine 0.05 mM (OATs)): −; Modulatory effect (MDCK cell monolayers; + ES 0.05 mM (OATPs)): −; PappBA (MDCK cell monolayers; + ES 0.05 mM (OATPs)): 20.89 ± 0.79 1 × 10^−6 cm/s; Modulatory effect (MDCK cell monolayers; + Gly-Sar 10 mM (PEPT1)): −; Modulatory effect (MDCK cell monolayers; + Ko143 0.01 mM (BCRP)): −; PappAB (MDCK cell monolayers; + Ko143 0.01 mM (BCRP)): 20.08 ± 0.41 1 × 10^−6 cm/s; PappBA (MDCK cell monolayers; + Ko143 0.01 mM (BCRP)): 23.37 ± 0.73 1 × 10^−6 cm/s; Modulatory effect (MDCK cell monolayers; + MK571 0.05 mM (MRP2)): −; PappAB (MDCK cell monolayers; + MK571 0.05 mM (MRP2)): 19.66 ± 0.65 1 × 10^−6 cm/s; PappBA (MDCK cell monolayers; + MK571 0.05 mM (MRP2)): 22.57 ± 0.14 1 × 10^−6 cm/s; Modulatory effect (MDCK cell monolayers; + NaN3 10 mM (ATP)): +; PappAB (MDCK cell monolayers; + NaN3 10 mM (ATP)): 16.22 ± 0.84^* 1 × 10^−6 cm/s; PappBA (MDCK cell monolayers; + NaN3 10 mM (ATP)): 22.78 ± 1.65 1 × 10^−6 cm/s; Modulatory effect (MDCK cell monolayers; + Phloretin 0.3 mM (MCTs)): −; PappAB (MDCK cell monolayers; + Phloretin 0.3 mM (MCTs)): 20.34 ± 0.71 1 × 10^−6 cm/s; PappAB (MDCK cell monolayers; + Phloridzin 0.5 mM (SGLT1)): 15.96 ± 0.96^* 1 × 10^−6 cm/s; PappBA (MDCK cell monolayers; + Phloridzin 0.5 mM (SGLT1)): 20.59 ± 1.19 1 × 10^−6 cm/s; Modulatory effect (MDCK cell monolayers; + Probenecid 0.2 mM (MRP2)): −; PappAB (MDCK cell monolayers; + Probenecid 0.2 mM (MRP2)): 21.01 ± 2.16 1 × 10^−6 cm/s; PappBA (MDCK cell monolayers; + Probenecid 0.2 mM (MRP2)): 21.86 ± 1.21 1 × 10^−6 cm/s; Modulatory effect (MDCK cell monolayers; + Quinidine 0.1 mM (MDR1)): −; Modulatory effect (MDCK cell monolayers; + Sodium vanadate 0.05 mM (Na^+)): +; Modulatory effect (MDCK cell monolayers; + TEA 5 mM (OCTs/OCTNs)): +; Modulatory effect (MDCK cell monolayers; + Verapamil 0.1 mM (MDR1)): −; PappAB (MDCK cell monolayers; + Verapamil 0.1 mM (MDR1)): 20.96 ± 1.30 1 × 10^−6 cm/s; PappAB (MDCK cell monolayers; [2]): 20.36 ± 1.82 1 × 10^−6 cm/s; PappBA (MDCK cell monolayers; [2]): 21.03 ± 2.11 1 × 10^−6 cm/s; efflux ratio at 120 min, 2 μM (SGLT1): 1.29; efflux ratio at 120 min, 2 μM [1]: 1.4; Papp A→B at 120 min, 2 μM (Na+/K+-ATPase): 16.2 ± 1.45 ×10⁻⁶ cm/s; Papp B→A at 120 min, 2 μM (Na+/K+-ATPase): 20.4 ± 0.22 ×10⁻⁶ cm/s; efflux ratio at 120 min, 2 μM (Na+/K+-ATPase; read-out: ER): 1.26; Papp A→B at 120 min, 2 μM (MDR1; [3]): 20.1 ± 0.76 ×10⁻⁶ cm/s; Papp B→A at 120 min, 2 μM (MDR1; [3]): 22.5 ± 1.12 ×10⁻⁶ cm/s; efflux ratio at 120 min, 2 μM (MDR1; [3]): 1.12; Papp B→A at 120 min, 2 μM (MDR1; [4]): 21.9 ± 2.64 ×10⁻⁶ cm/s; efflux ratio at 120 min, 2 μM (MDR1; [4]): 1.05; efflux ratio at 120 min, 2 μM (MRP2; with MK571 0.05 mM (50 μM), + MK571 0.05 mM (MRP2)): 1.15; efflux ratio at 120 min, 2 μM (MRP2; with probenecid 0.2 mM (200 μM), + Probenecid 0.2 mM (MRP2)): 1.04; efflux ratio at 120 min, 2 μM (BCRP; with Ko143 0.01 mM (10 μM), + Ko143 0.01 mM (BCRP)): 1.16; Papp B→A at 120 min, 2 μM (BCRP; [5]): 23.7 ± 1.11 ×10⁻⁶ cm/s; efflux ratio at 120 min, 2 μM (BCRP; [5]): 1.16
